ChEMBL document CHEMBL3097992, “Comparative molecular field analysis of fenoterol derivatives interacting with an agonist-stabilized form of the β₂-adrenergic receptor” (Bioorg Med Chem, 2014)

What was measured:
[1] = target: T1, Beta-2 adrenergic receptor (Homo sapiens, UniProt P07550); experiment: Displacement of [3H]-(R,R')-methoxyfenoterol from human beta2 adrenergic receptor expressed in HEK cells by liquid scintillation counting analysis; type: cell-based, HEK293
[2] = target: T1, Beta-2 adrenergic receptor; experiment: Displacement of [3H]-CGP-12177 from human beta2 adrenergic receptor expressed in HEK cells by liquid scintillation counting analysis; type: cell-based, HEK293
[3] = target: T1, Beta-2 adrenergic receptor; experiment: Agonist activity at human beta2 adrenergic receptor expressed in HEK293 cells assessed as stimulation of cAMP accumulation; type: functional, cell-based

T1 sequence (P07550 whole entry): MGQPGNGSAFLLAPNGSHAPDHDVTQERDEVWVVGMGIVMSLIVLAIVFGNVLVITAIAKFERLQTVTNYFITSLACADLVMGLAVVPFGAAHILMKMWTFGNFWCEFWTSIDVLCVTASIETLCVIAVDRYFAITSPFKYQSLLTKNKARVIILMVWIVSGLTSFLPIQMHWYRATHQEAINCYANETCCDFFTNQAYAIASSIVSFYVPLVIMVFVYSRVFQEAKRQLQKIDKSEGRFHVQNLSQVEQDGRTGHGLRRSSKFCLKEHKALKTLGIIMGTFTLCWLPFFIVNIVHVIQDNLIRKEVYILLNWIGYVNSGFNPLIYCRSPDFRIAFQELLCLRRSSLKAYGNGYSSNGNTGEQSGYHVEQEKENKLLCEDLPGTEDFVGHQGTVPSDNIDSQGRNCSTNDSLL

Compound	Ki [1]	Ki [2]	EC50 [3]
COc1ccc(C[C@@H](NC[C@H](O)c2cc(O)cc(O)c2)C(C)C)cc1	3.42 µM	> 100 µM	6.1 µM
CC[C@H](Cc1ccc(OC)cc1)NC[C@H](O)c1cc(O)cc(O)c1	0.0357 µM	0.42 µM	0.00163 µM
CC[C@@H](Cc1ccc(O)cc1)NC[C@H](O)c1cc(O)cc(O)c1	0.294 µM		
CC[C@@H](Cc1ccc(OC)cc1)NC[C@H](O)c1cc(O)cc(O)c1	4.3 µM	20.1 µM	1.01 µM
CC[C@H](Cc1ccc(O)cc1)NC[C@H](O)c1cc(O)cc(O)c1	0.0391 µM		
COc1ccc(C[C@H](NC[C@H](O)c2cc(O)cc(O)c2)C(C)C)cc1	29.2 µM	> 100 µM	26.2 µM
